# Source: patent publication US20190029989A1, “BOWEL CARE USING IONTOPHORESIS” (priority 2016, published 2019)
# Tests used:
# Assay type in all cases: in vivo, human
# Persons with SCI [1] = experiment: Bowel evacuation score by video fluoroscopy after IV bolus in thirteen subjects (Example 3); conditions: IV bolus 2 mg neostigmine alone or with 0.4 mg glycopyrrolate
# Protocol: (§1) Thirteen (13) persons with SCI (5 quadriplegics, 8 paraplegics) with a mean age of 46 years (range 25-69) and mean duration of injury of 16 years (range 1-31) were treated. None of the subjects had known heart disease and/or history of arrhythmias.
# (§2) On separate days, subjects were given by IV bolus either (i) 2 mg neostigmine alone, (ii) a combination of 2 mg neostigmine and 0.4 mg glycopyrrolate, or (iii) normal saline. Subjects were blinded to the type of infusion being delivered. The effect of these infusions on bowel evacuation was assessed semi-quantitatively on a scale of 0 (no evacuation) to 4+(complete evacuation) using video fluoroscopy after rectal instillation of a barium-oatmeal paste having a consistency similar to that of stool. Blood pressure, heart rate and other vital signs were monitored in each subject. In addition, airway resistances were determined in each subject using the forced oscillation technique (as described, for example, in Goldman, Pulm. Pharmacol. Ther., 14(5):341-350, 2001). Total airway resistance was determined using 5 Hz forced oscillations, and central airway resistance was determined using 20 Hz forced oscillations.
# This response received a 0 (zero) bowel evacuation score. FIGS. 1B-1E show progressively increasing bowel evacuation responses in different subjects. The responses in FIGS. 1B-1E correspond to bowel evacuation scores of 1+, 2+, 3+, and 4+, respectively.
# Persons with SCI [2] = experiment: Airway resistance by forced oscillation technique after IV bolus (Example 3); conditions: IV bolus 2 mg neostigmine
# Protocol: as §1, §2
# Persons with SCI [3] = experiment: Heart rate and blood pressure monitoring after IV bolus (Example 3); conditions: IV bolus 2 mg neostigmine alone or with 0.4 mg glycopyrrolate
# Protocol: as §1, §2
structure (smiles),measurement,setting,value
CN(C)C(=O)Oc1cccc([N+](C)(C)C)c1 [neostigmine],subjects with prompt and complete evacuation,Persons with SCI [1],57%
same,time of evacuation post infusion (mean),Persons with SCI [1],11 min
same,mean bowel evacuation score,"Persons with SCI [1]; scale 0 (no evacuation) to 4+ (complete evacuation), thirteen subjects",about 2.29
same,"total airway resistance, increase over baseline",Persons with SCI [2]; 5 Hz forced oscillations,approximately 25.5%
same,"central airway resistance, increase over baseline",Persons with SCI [2]; 20 Hz forced oscillations,approximately 18.4%
same,change in blood pressure,Persons with SCI [3],No change
same,mean lowest heart rate measured,Persons with SCI [3]; p=0.02,about 49 BMP
